According to US4868195A, “Novel enolamides, pharmaceutical compositions and methods of use thereof for activity as modulators of the arachidonic acid cascade” (Warner-Lambert Company, priority 1988, dated 1989):
Where “and” joins values, the source holds several entries; their conditions need not be identical. Equal values may be shown once.

Assays:
[1] = target: Human Leukocyte Lipoxygenase; test: Human Leukocyte Lipoxygenase Assay (LDA-H); format: biochemical; settings: for IC50: acetone-pentane powder enzyme, 234 nm, 24° C., 5 min preincubation, read-out: Concentration (M) for 50.0 % Inhibition, IC (LDAH)
Protocol: Human Leukocyte Lipoxygenase Assay (LDA-H)
Whole blood is collected from normal volunteers and spun in a refrigerated centrifuge for four minutes at 1°-6° C. at 3800 g. The buffy coat is manually separated and washed twice with chilled 0.83% NH4 Cl and centrifuged at 1000 RPM for ten minutes at 4° C. The white cell is suspended in culture media-EMEM supplemented with 6% Agamma human serum, tricine buffer, and neomycin and recentrifuged at 1000 g to yield a pellet containing the leukocytes used for the preparation of the acetone pentane powder.
The acetone-pentane powder is prepared utilizing a modification of the procedure reported for human platelet lipoxygenase. See Siegel, et al, Arachidonate Metabolism via Lipoxygenase and 12-L-hydroperoxy-5 Eicosatetraenoic Acid Peroxidase Sensitive to Antiinflammatory Drugs, Proc. Natl. Acad. Sci., USA 77: 308, 1980 and D. P. Wallach and V. R. Brown, A Novel Preparation of Human Platlet Lipoxygenase, Biochem. Biophys. Acta. 663: 361, 1981. Buffy coat prepared above is resuspended in 5-7 volumes of cold 0.1M Tris buffer, pH 7.4 containing 0.154M NaCl. The suspension is centrifuged at 13,300 g for ten minutes at 4° C. The resultant pellet is retained, resuspended in five volumes of cold acetone, recentrifuged at 13,300 g and resuspended in five volumes of cold pentane. The pentane suspension is centrifuged for ten minutes at 13,300 g to give a pellet which is dried in the cold under vacuum with periodic pulverization. The dry powder is stable for several weeks when stored at -80° C.
Enzyme stock solution is prepared in the following manner. About 15 mg of the acetone-pentane powder is suspended in 4 ml of cold tris buffer (0.1M, pH 7.4), allowed to stand for five minutes, and homogenized thoroughly. The homogenate is sonicated three times for 15 seconds each time, diluted to 7 ml with cold tris buffer (0.1M, pH 7.4), and centrifuged at 4° C. for 60 minutes at 13,300 g. the supernatent is retained and diluted to a total of 10 ml with cold tris buffer (0.1M, pH 7.4) to give the stock enzyme solution. Additional dilutions of 2-50 fold are done as necessary to locate optimal enzyme reaction rate in the assay described below.
Substrate solution is prepared at 100 μM or 1.0 μM concentrations of arachidonic acid or linoleic acid in 0.1M tris buffer, pH 9.0 containing 20% ethanol.
The enzyme reaction is followed spectrophotometrically by the appearance of a conjugated diene product at 234 nm. The reaction is monitored at 24° C. using a Gilford Model 2600 spectrophotometer. […] The effects of inhibitors on the reaction are compared with control reactions run under indentical conditions. Routinely, each compounds of the present invention is incubated with the enzyme for five minutes prior to addition of substrate to initiate the reaction. Inhibition expressed as IC50 as molar concentration of the compound required to reduce reaction rate to 50% control.

[2] = target: T1, leukotriene receptor (guinea pig lung membranes) (Cavia porcellus, UniProt Q2NNR5); test: Binding of ^3 H-Leukotriene D4 to Guinea Pig Lung Membranes (RBL); settings: 0.2 nM ^3 H-LTD4, 60 min, 25° C.; read-out: Concentration (M) for 50.0 % Inhibition, IC (RBL)
T1 construct: 20 mg original tissue wet weight of guinea pig lung; tissue Kuiper Rabbit Farm, Gary, IN (animals); host or cells: guinea pig lung, crude membranes
T1 sequence (Q2NNR5 1-340): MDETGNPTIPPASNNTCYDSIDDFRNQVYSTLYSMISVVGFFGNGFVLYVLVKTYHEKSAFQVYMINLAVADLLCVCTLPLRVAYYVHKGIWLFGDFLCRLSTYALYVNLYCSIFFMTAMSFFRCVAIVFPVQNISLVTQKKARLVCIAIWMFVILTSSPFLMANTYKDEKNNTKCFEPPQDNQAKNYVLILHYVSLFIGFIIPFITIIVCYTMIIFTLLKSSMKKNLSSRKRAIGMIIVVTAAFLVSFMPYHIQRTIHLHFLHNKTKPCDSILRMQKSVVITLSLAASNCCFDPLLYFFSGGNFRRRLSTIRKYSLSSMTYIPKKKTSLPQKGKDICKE
Protocol: Additionally, the activity, of the compounds having the Formula I of the present invention is determined by the well known leukotriene receptor binding assay that is described by R. F. Bruns, W. J. Thomsen and T. A. Pugsley in Life Sciences, 33, 645 (1983) or the Herxheimer in vivo antiallergy test described in H. Herxheimer, J. Physiol. (London), Vol. 177, p. 251 (1952).
Binding of ^3 H-Leukotriene D4 to Guinea Pig Lung Membranes (RBL)
[14,15-^3 H]leukotriene D4 (^3 H-LTD4) (25 Ci/mmol and 40 Ci/mmol) is purchased from New England Nuclear. Unlabeled LTC4 is a gift of Ono Pharmaceuticals (Japan). LTC4, LTD4, and LTE4 are purchased as methyl esters from Paesel GmbH (Frankfurt, W. Germany). Concentrations of the Paesel leukotrienes are calculated from their absorbance at 280 nm. Leukotriene esters are saponified overnight under N2 in 3.3% potassium carbonate at room temperature. Tritiated leukotrienes are stored as received from New England Nuclear at -20° C. Ono LTC4 (5 μg/ml) is stored at -60° C. in phosphate buffer pH 6.8. Saponified Paesel leukotrienes are stored at -60° C. in 3.3% potassium carbonate (pH 9.0-9.5). Aliquots of leukotrienes are taken from stock solutions immediately after thawing, after which the stock solutions are immediately refrozen. 2-Amino-2-(hydroxymethyl)-1,3-propanediol (Tris) is Sigma pH 7.7 pre-set crystals, and dimethylsulfoxide is Aldrich Gold Label.
Preparation of crude lung membranes
Two pairs of lungs (1.3 g) from freshly sacrificed 300 g male guinea pigs (older animals gave substantially lower binding) from Kuiper Rabbit Farm, Gary, IN are disrupted with a Polytron PT 10 (setting 4) for 30 seconds in 20 ml ice-cold 50 mM Tris adjusted with HCl to pH 7.7 at 25° C. (Tris buffer), filtered through a single layer of gauze to remove connective tissue, and centrifuged at 50,000 xg for ten min. The pellet is resuspended by homogenization with a Polytron in 20 ml Tris buffer, centrifuged at 50,000 xg for ten min., resuspended, incubated at 37° C. for 30 minutes, and centrifuged again. The final pellet is resuspended in Tris buffer and either used fresh or stored at -70° C.
All incubations are in triplicate for 60 minutes at 25° C. in 12×75 mm polystyrene tubes containing 1 ml Tris buffer with 20 mg original tissue wet weight of guinea pig lung nmembranes, 0.2 nM ^3 H-LTD4 (6,000-11,000 cpm), 10 mM MgCl2, and 1% dimethylsulfoxide Leukotrienes are diluted in Tris buffer. All other test compounds dissolved at 10 mM in dimethylsulfoxide on the same day as the experiment, and diluted in dimethylsulfoxide to 100× the final incubation concentration. Control incubations receive an equal volume (10 μl) of dimethylsulfoxide; the resulting concentration of dimethylsulfoxide had no effect on binding. ^3 H-LTD4 is diluted to 2 nM in Tris buffer. The membrane suspension (20 mg/0.89 ml) contains sufficient MgCl2 to give 10 mM final concentration in the incubation. […] All additions are performed at 0° C. Immediately after the last addition, the incubation is initiated by agitating the rack of tubes on a vortex mixer and warming to 25° C. in a water bath. Tubes are vortexed at least once more during the incubation to ensure that the membranes remained suspended. Incubations are terminated after 60 minutes by filtering under reduced pressure through 25 mm Whatman GF/B filters followed by rapid washing three times with 4 ml of ice-cold Tris buffer. Filters are added to scintillation vials with 8 ml Formula 947 (New England Nuclear), left overnight, shaken, and the radioactivity counted in a scintillation counter (efficiency 40%). Nonspecific binding, defined as binding of ^3 H-LTD4 in the presence of 100 nM LTC4, is 300-500 cpm for all lots of ^3 H-LTD4. Binding to the filters in the absence of tissue is about 100 cpm, and is not affected by unlabeled LTC4. Specific binding, defined as total binding minus nonspecific binding, varied considerably from lot to lot of ^3 H-LTD4. […]

IC50 [1] [M]	IC50 [2]	% Inhibition (LDAH) ([1]; Concentration 8.00 E -5 M) [%]	% Inhibition (LDAH) ([1]; Concentration 2.50 E -5 M) [%]	Structure (SMILES)
8.2e-06	6.88e-05 M	–	–	O=C(Nc1ccc(CCc2ccc(O)c(O)c2)cc1)C(=O)c1sc2ccccc2c1O [Example 134, N-[4-[2-(3,4-Dihydroxyphenyl)ethyl]phenyl]-3-hydroxy-α-oxo-benzo[b]thiophene-2-acetamide]
1.1e-06	3.64e-06 M	–	–	O=C(Nc1ccc(CCc2ccc(Cl)c(Cl)c2)cc1)C1CS(=O)(=O)c2ccccc2C1=O (centres unmarked) [Example 11, N-[4-[2-(3,4-Dichlorophenyl)ethyl]phenyl]-3,4-dihydro-4-oxo-2H-1-benzothiopyran-3-carboxamide, 1,1-dioxide]
–	8.47e-06 M	0.0	–	CCCCCCc1ccc(NC(=O)C2CS(=O)(=O)c3ccccc3C2=O)cc1 (centres unmarked) [Example 58, N-(4-Hexylphenyl)-3,4-dihydro-4-oxo-2H-1-benzothiopyran-3-carboxamide, 1-1-dioxide]
2.6e-06	3.5e-06 M	–	–	O=C(Nc1ccc(CCc2ccc(Cl)cc2Cl)cc1)C1=C(O)c2ccccc2S(=O)(=O)C1 [Example 72, 2H-1-Benzothiopyran-3-carboxamide, N-[4-[2-(2,4-dichlorophenyl)ethyl]phenyl]-4-hydroxy-1,1-dioxide]
2.5e-05	8.2e-05 M	–	–	O=C(Nc1ccc(CCc2cc(O)cc(O)c2)cc1)C1=C(O)c2ccccc2S(=O)(=O)C1 [Example 33, N-[4-[2-(3,5-Dihydroxyphenyl)ethyl]phenyl]-4-hydroxy-2H-1-benzothiopyran-3-carboxamide, 1,1-dioxide]
5.7e-05	2.48e-05 M	–	–	COc1cccc(CCc2ccc(NC(=O)C3CS(=O)(=O)c4ccccc4C3=O)cc2)c1 (centres unmarked) [Example 39]
1e-06	2e-05 M and 2.05e-05 M	–	–	CCCCCCCCCCCCc1ccc(NC(=O)C2CS(=O)(=O)c3ccccc3C2=O)cc1 (centres unmarked) [Example 61, N-(4-Dodecylphenyl)-3,4-dihydro-4-oxo-2H-1-benzothiopyran-3-carboxamide, 1,1-dioxide]
–	3.02e-06 M	–	0.0	O=C(Nc1ccc(CCc2ccc(C(F)(F)F)cc2)cc1)C1CS(=O)(=O)c2ccccc2C1=O (centres unmarked) [Example 44]
–	2.06e-05 M	0.0	–	Cc1ccccc1CCc1ccc(NC(=O)C2=C(O)c3ccccc3S(=O)(=O)C2)cc1 [Example 43]
–	1.11e-05 M	0.0	–	CCOC(=O)c1ccc(CCc2ccc(NC(=O)C3CS(=O)(=O)c4ccccc4C3=O)cc2)cc1 (centres unmarked) [Example 47, 4-[2-[4-[[(3,4-Dihydro-4-oxo-2H-1-benzothiopyran-3-yl)carbonyl]amino]pheyl]ethyl]benzoic acid, ethyl ester, 1,1-dioxide]
–	1.9e-05 M	0.0	–	COc1ccccc1CCc1ccc(NC(=O)C2=C(O)c3ccccc3S(=O)(=O)C2)cc1 [Example 37, 4-Hydroxy-N-8 4-[2-(2-methoxyphenyl)ethyl]phenyl-2H-1-benzothiopyran-3-carboxamide, 1,1-dioxide]
–	6.68e-06 M	–	0.0	O=C(Nc1ccc(CCc2ccccc2O)cc1)C1=C(O)c2ccccc2S(=O)(=O)C1 [Example 38]
–	3.95e-05 M	0.0	–	O=C(Nc1ccc(CCc2cccc(O)c2)cc1)C1CS(=O)(=O)c2ccccc2C1=O (centres unmarked) [Example 82]
0.0002	7.46e-06 M	–	–	O=C(Nc1ccc(CCc2cc(Cl)cc(Cl)c2)cc1)C1=C(O)c2ccccc2S(=O)(=O)C1 [Example 71, 2H-1-Benzothiopyran-3-carboxamide, N-[4-[2-(3,5-dichlorophenyl)ethyl]phenyl]-4-hydroxy-, 1,1-dioxide]
3.3e-05	0.000113 M	–	–	O=C(Nc1ccc(CCc2ccc(O)c(O)c2)cc1)C(=O)c1sc2ccc(Cl)cc2c1O [Example 138, Benzo[b]thiophene-2-acetamide, 5-chloro-N-[4-[2-(3,4-dihydroxyphenyl)ethyl]phenyl]-3-hydroxy-α-oxo]
–	7.29e-06 M	–	0.0	CCCCCCCCc1ccc(NC(=O)C2CS(=O)(=O)c3ccccc3C2=O)cc1 (centres unmarked) [Example 59, 3,4-Dihydro-N-(4-octylphenyl)-4-oxo-2H-1-benzothiopyran-3-carboxamide, 1,1-dioxide]
–	9.44e-06 M	0.0	–	Cc1ccc(CCc2ccc(NC(=O)C3CS(=O)(=O)c4ccccc4C3=O)cc2)cc1 (centres unmarked) [Example 45]
3.5e-05	0.000149 M	–	–	CC(=O)Nc1ccc(CCc2ccc(NC(=O)C3CS(=O)(=O)c4ccccc4C3=O)cc2)cc1 (centres unmarked) [Example 49]
8.2e-05	5.6e-05 M	–	–	O=C(Nc1ccc(CCc2ccc(O)cc2)cc1)C1CS(=O)(=O)c2ccccc2C1=O (centres unmarked) [Example 40]
